{"source": "patent US6924415B2", "about": "(Board of Regents, The University of Texas System, priority 2001, dated 2005)", "key": {"ERK5 [1]": {"tested_on": "ERK5", "assay": "ERK5 immunoprecipitation kinase assay (GST-MEF2C substrate) after treatment of cardiomyocytes", "type": "cell-based", "settings": "at 60 min; 0.3M sorbitol or 200 μM H2O2; serum-deprived neonatal rat cardiomyocytes", "quoted_text": "Top, ERK5 was immunoprecipitated from 200 μg of cellular lysate with an antibody specific for the carboxyl-terminal 20 amino acids. Kinase assays were performed with immunoprecipitated ERK5 using GST-MEF2C substrate in the presence of [γ-^32P]-ATP. GST-MEF2C phosphorylation was detected by autoradiography after SDS-PAGE. Middle, immunoblotting was performed on immunoprecipitated material using rabbit anti-ERK5 antibody. Bottom, levels of ^32P-phosphorylated GST-MEF2C were quantitated with a Phosphor Imager.\nFollowing incubation for 30 min at 30° C., samples were separated by SDS-PAGE and transferred to a polyvinylidene difluoride (PVDF) membrane. The level of ^32P-labeled GST-fusion protein on the membrane was analyzed using a Phosphor Imager (Molecular Dynamics). The membrane was then immunoblotted with anti-ERK5 rabbit polyclonal antibody (StressGen) at a final concentration of 150 ng/ml and proteins were visualized using a chemiluminescence system (Santa Cruz).\nEighteen hours after plating, cells were changed into serum-free media and either incubated for an additional forty-eight hours prior to treatment with hypertrophic agents or infected with adenovirus at a multiplicity of infection of 100.\nFollowing treatment, cardiomyocytes were harvested and ERK5 immunoprecipitation (IP) kinase assays were performed with a GST-MEF2C substrate."}, "ERK5 [2]": {"tested_on": "ERK5", "settings": "Kamakura et al., 1999; cited from earlier work"}, "skeletal α-actin": {"tested_on": "skeletal α-actin", "assay": "RNA dot blot, fetal gene expression in cardiomyocytes: skeletal α-actin", "type": "cell-based", "settings": "Rattus norvegicus, Cardiomyocyte; Adβ-gal-infected cells treated with LIF (1000 units/ml) or PE (50 μM) 24 hours; relative to uninfected untreated cells", "method": "FIGS. 4A-B. MEK5 signaling contributes to the regulation of cardiomyocyte fetal gene expression by PE and LIF. (FIG. 4A) Cardiomyocytes were either not infected (−) or infected with MEK5WT, MEK5KM or β-gal adenoviruses at an moi of 20 and serum-deprived. Thirty-six hours post-infection, cells were either not treated or treated with 50 μM PE (black bar) or 1000 units/ml LIF (white bar) for an additional 24 hours. RNA was prepared and used for dot blots with oligonucleotide probes specific for skeletal α-actin, ANF or BNP. Signal intensity was quantitated using a Phosphor Imager. The average fold induction±SD of three independent experiments is shown. “-fold” induction is relative to uninfected cells without PE or LIF treatment. (FIG. 4B) Cardiomyocytes were either not infected or infected with MEK5DD or β-gal adenoviruses at an moi of 20 and serum-deprived. Forty-eight hours post-infection, the cells were harvested and RNA was prepared. Transcript levels for α-skeletal actin, ANF or BNP were determined as described in FIG. 4A. […]\nTo determine whether elevated MEK5 could also transduce signals that regulate fetal gene expression, the inventors treated cardiomyocytes infected with AdMEK5WT, AdMEK5KM or Ad[…]-gal with LIF or PE and analyzed expression of atrial natriuretic factor (ANF), brain natriuretic peptide (BNP) and skeletal α-actin (FIG. 4A). […]"}, "[3]": {"tested_on": "neonatal rat cardiomyocytes", "assay": "Morphometric analysis of cardiomyocytes (anti-sarcomeric α-actinin staining)", "type": "cell-based", "design": "Area / Major axis / Minor axis / Major/Minor: dose or concentration left out as unconfirmed", "settings": "for Area / Major axis / Major/Minor / Minor axis: virus moi 100, PE or LIF (1000 units/ml) where indicated, mean ± SD"}}, "data": [{"molecule": "OO", "note": "[H2O2]", "values": [{"measurement": "activation of ERK5 (phosphorylation of GST-MEF2C)", "setting": "ERK5 [1]", "result": 5, "unit": "fold"}]}, {"molecule": "COc1cccc(-c2cc(=O)c3ccccc3o2)c1N", "note": "[PD098059]", "values": [{"measurement": "inhibition of activation of ERK5", "setting": "ERK5 [2]", "result": "inhibit activation of ERK5"}]}, {"molecule": "CNC[C@H](O)c1cccc(O)c1", "note": "[PE, phenylephrine]", "values": [{"measurement": "fold induction at 50 µM", "setting": "skeletal α-actin", "result": "4 to 5"}, {"measurement": "Area", "setting": "[3]", "result": "5745 ± 1560", "unit": "μm^2"}, {"measurement": "Major axis", "setting": "[3]", "result": "110 ± 20", "unit": "μm"}, {"measurement": "Major/Minor", "setting": "[3]", "result": "1.71 ± 0.37"}, {"measurement": "Minor axis", "setting": "[3]", "result": "66 ± 12", "unit": "μm"}]}, {"molecule": "N#CC(=C(/N)Sc1ccccc1N)/C(C#N)=C(\\N)Sc1ccccc1N", "note": "[U0126]", "values": [{"measurement": "inhibition of activation of ERK5", "setting": "ERK5 [2]", "result": "inhibit activation of ERK5"}]}, {"molecule": "OC[C@@H](O)[C@@H](O)[C@H](O)[C@@H](O)CO", "note": "[sorbitol]", "values": [{"measurement": "activation of ERK5 (phosphorylation of GST-MEF2C)", "setting": "ERK5 [1]", "result": 8, "unit": "fold"}]}, {"molecule": "LIF: IL-6 family cytokine, leukemia inhibitory factor", "values": [{"measurement": "Area", "setting": "[3]", "result": "3586 ± 1090", "unit": "μm^2"}, {"measurement": "Major axis", "setting": "[3]", "result": "144 ± 36", "unit": "μm"}, {"measurement": "Major/Minor", "setting": "[3]", "result": 5.06}, {"measurement": "Minor axis", "setting": "[3]", "result": "33 ± 12", "unit": "μm"}, {"measurement": "cardiomyocyte elongation (morphology)", "setting": "[3]; α-actinin staining", "result": "induced dramatic elongation"}]}]}
